# Where two headings read alike, the source gives them in different places.
# Legend:
# [1] = tested on: rat mixed hippocampal cultures; experiment: Titration of 3-NP for neurotoxic effects, MTT viability; format: cell-based; conditions: 3 mM 3-NP, 18 hours
# Protocol: FIG. 3 is a bar graph showing the effect of a series of 3-nitropropionic acid (3-NP) concentrations (0.5-10 mM) on survival of mixed hippocampal cell cultures in a [3-(4,5-dimethylthiazol-2-yl)-2,5-diphenyl tetrazolium bromide] (MTT) viability assay. Absorbance at 595 nm (corresponding to the absorbance of the reduced MTT formazan product) is directly proportional to cell viability.
# [2] = tested on: rat mixed hippocampal cultures; experiment: 3-NP neurotoxicity assay, MTT viability, rat mixed hippocampal cultures; format: cell-based; conditions: for inhibition at 10 µM: Rattus norvegicus; for protection against 3-NP (FIG. 5): approximate values; for protection from oxidative damage elicited by 3-NP, in words (FIG. 4A): GPI 1046 1 μM, Resveratrol 25 μM
# Protocol: For example, a cell viability assay can be used in a preliminary screen on a large series of compounds each of which is tested at a fixed concentration. In some embodiments, mixed hippocampal cell cultures are prepared as described in, e.g., Haughey et al. (1999), J Neurochem, 73(4):1363-1374, and Haughey et al (2004), J Neurosci, 24(1):257-268. Subsequently, the cultures are pretreated for one hour in the presence of a candidate neuroprotective agent and then incubated with a cytotoxic agent for about 18 hours. Examples of cytotoxic agents include, but are not limited to, oxidative stressors (e.g., 3-nitropropionic acid (3-NP) or H2O2), excitatory amino acids (e.g., kainate), or neurotoxic proteins (e.g., Hiv Tat, or Aβ peptides). […] The level of protection (“percent protection”) provided by the test compound at a given test concentration in vitro can be expressed as: […]
# A variety of methods for determining cell viability may be used. In some embodiments, cell viability is assessed based on the “MTT” assay method described in Mosmann (1983), J Immunol Methods, 65(1-2):55-63, or a variant thereof. This assay is based on the ability of a mitochondrial dehydrogenase enzyme from viable cells to cleave the tetrazolium rings of the pale yellow MTT and form dark blue formazan crystals, which are trapped in cells and readily quantified by ELISA spectrophotometry.
# (§1) We sought to evaluate the protective efficacy of a number of modified terpenoid compounds against the against many different neurotoxins, ranging from the chemotoxic 6-OHDA, NMDA, 3-nitropropionic acid (3-NP), and viral proteins such as Tat and gp120. Thus, we established an in vitro neuroprotection assay using rat mixed hippocampal cultures, in which we evaluated the protective efficacy of neuroprotective compounds disclosed herein. The oxidative stressor 3-NP was used to elicit toxicity in the rat hippocampal cultures to mimic the oxidative damage, reactive oxygen species production and ensuing neurodegeneration resulting from HIV infection. Another measure of neurotoxicity which results from HIV infection was evaluated by exposure of the hippocampal cultures to HIV-1 Tat (Li et al (2005), Neurotox Res, 8(1-2): 119-134).
# (§2) Rat mixed hippocamal neuronal cultures were generated from freshly dissected rat hippocampi (embryonic day 18) in neurobasal media containing 5% fetal bovine serum and 2% B27 supplement. The cells were plated into 96 well plates at a density of 4×10^5 cells/mL and routinely used on days 11-14 following culturing. Cell viability was assessed with MTT [3-(4,5-dimethylthiazol-2-yl)-2,5-diphenyltetrazolium bromide] assay. The MTT assay is based on the ability of a mitochondrial dehydrogenase enzyme from viable cells to cleave the tetrazolium rings of the pale yellow MTT and form dark blue formazan crystals. See Mosmann (1983), J Immunol Methods, 65(1-2):55-63. These crystals are largely impermeable to cell membranes, and thus accumulate within healthy cells. The resultant formazan precipitates are solubilized with DMSO and read on a multiwell scanning spectrophotometer (ELISA reader). The number of surviving cells is directly proportional to the level of the formazan product created.
# Mixed hippocampal cultures were incubated with 3-NP (0.5-10 mM) for 18 hours and then assessed for viability using an MTT assay.
# (§3) Cultures were preincubated with GPI 1046 or Resveratrol for one hour prior to an 18 hour exposure to 3 mM 3-NP. […] The same neuroprotective compounds were evaluated for efficacy against HIV-1 Tat protein toxicity using the same 1 hour preincubation protocol.
# [3] = tested on: hippocampal cultures (HIV-1 Tat toxicity); experiment: HIV-1 Tat toxicity assay, MTT viability, mixed hippocampal cultures; format: cell-based, rat; conditions: Tat 500 nM; for protection from HIV-1 Tat toxicity, in words (FIG. 4B): 1 h preincubation, GPI 1046 10 μM, Resveratrol 10 μM
# Source text: as §1, §2, §3
# [4] = Table 3, 3 mM 3-NP 18 h, 1 h preincubation, test concentration (10 μM), read-out: % Protection vs 3-NP
# [5] = Table 2, vs 3 mM 3-NP 18 h, 1 h preincubation, test concentration (10 μM)
# [6] = Table 2, vs 3 mM 3-NP 18 h, 1 h preincubation, test concentration (10 μM), read-out: % Protection
# [7] = Table 3, 3 mM 3-NP 18 h, 1 h preincubation, test concentration (10 μM)
# [8] = 3 mM 3-NP 18 h, 1 h preincubation
compound,measurement,setting,value
"O=C(O)CC[N+](=O)[O-] [Compound 3-NP, 3-nitropropionic acid]",cytotoxicity induced,[1],25-35%
CC(=O)O[C@@H]1CC2C(C)(C)C(=O)C=C[C@]2(C)C2CC[C@@]3(C)C(=CC(=O)O[C@@H]3c3ccoc3)[C@@]21C (some centres unmarked) [DEOXYGEDUNIN],inhibition at 10 µM,[2]; [4],23%
same,% Protection,[2]; [5],23%
CC(=O)OC1C=C[C@@]2(C)C(C[C@@H](OC(C)=O)[C@@]3(C)C4=CC(=O)O[C@@H](c5ccoc5)[C@]4(C)CCC23)C1(C)C (some centres unmarked) [DEOXYGEDUNOL ACETATE],inhibition at 10 µM,[2]; [6],54%
CC(=O)OC1CC2C(C)(C)[C@H](OC(C)=O)C[C@H](OC(C)=O)[C@]2(C)C2CC[C@]3(C)C(=CC(=O)O[C@@H]3c3ccoc3)[C@]12C (some centres unmarked) [DEOXYKHIVORIN],inhibition at 10 µM,[2]; [6],36%
same,inhibition at 10 µM,[2]; [4],36%
"COC(=O)[C@@H]1OC(=O)C2OC23[C@@]1(C)CCC1[C@]2(C)C(C[C@@H](O)[C@]13C)C(C)(C)[C@H](OC(C)=O)C[C@@H]2OC(C)=O (some centres unmarked) [DESACETYL (7)KHIVORINIC ACID, METHYL ESTER]",% Protection,[2]; [5],58%
COC(=O)C[C@H]1C(C)(C)[C@@H](OC(C)=O)[C@@H]2CC3C4CC(=O)O[C@@H](c5ccoc5)[C@]4(C)CCC3[C@@]1(C)C2=O (some centres unmarked) [DIHYDROFISSINOLIDE],inhibition at 10 µM,[2]; [4],12%
CC(=O)O[C@@H]1CC2C(C)(C)C3(CC[C@]2(C)C2CC[C@@]4(C)[C@H](c5ccoc5)OC(=O)C5OC54[C@@]21C)SCCS3 (some centres unmarked) [DIHYDROGEDUNIN ETHANEDITHIOKETAL],% Protection,[2]; [5],19%
CC(=O)O[C@@H]1CC2C(C)(C)C(=O)CC[C@]2(C)C2CC[C@@]3(C)[C@@H](c4ccoc4)OC(=O)C4OC43[C@@]21C (some centres unmarked) [DIHYDROGEDUNIN],inhibition at 10 µM,[2]; [6],28%
CCC(C)C(=O)O[C@@H]1C[C@@]2(C)[C@H](c3ccoc3)OC(=O)CC23OC2(C)OC34[C@H](OC(=O)C(C)C)[C@@]3(O)[C@@H](OC(=O)C5(C)OC5C)[C@@]5(C)C[C@]3(O)[C@@](C)([C@H]5CC(=O)OC)C14O2 (some centres unmarked) [ENTANDROPHRAGMIN],% Protection vs 3-NP,[2]; [7],18%
CC(=O)O[C@@H]1CC2C(C)(C)C(=O)C3OC3[C@]2(C)C2CC[C@@]3(C)[C@H](c4ccoc4)OC(=O)C4OC43[C@@]21C (some centres unmarked) [EPOXYGEDUNIN],% Protection,[2]; [5],69%
COC(=O)C[C@H]1C(C)(C)[C@@H](OC(C)=O)[C@@H]2CC3=C4CC(=O)O[C@@H](c5ccoc5)[C@]4(C)CC[C@@H]3[C@@]1(C)C2=O [FISSINOLIDE],inhibition at 10 µM,[2]; [4],28%
CC(=O)O[C@@H]1CC2C(C)(C)C(=O)C=C[C@]2(C)C2CC[C@@]3(C)[C@H](c4ccoc4)OC(=O)[C@H]4O[C@]43[C@@]21C (some centres unmarked) [GEDUNIN],protection against 3-NP (FIG. 5),[2]; 3 mM 3-NP,about 50%
same,inhibition at 10 µM,[2]; [6],40%
same,"neuroprotection from HIV-1 Tat toxicity, in words",[3]; 1-10 μM compound,nearly complete neuroprotection
same,dose dependence of protection from HIV-1 Tat toxicity (FIG. 7),[3]; range of concentrations up to 10 μM,dose dependently protected
CC(=O)O[C@@H]1CC2C(C)(C)[C@H](O)C=C[C@]2(C)C2CC[C@@]3(C)[C@H](c4ccoc4)OC(=O)C4OC43[C@@]21C (some centres unmarked) [GEDUNOL],% Protection,[2]; [5],45%
"CCC(C)(C)C(=O)C(=O)N1CCC[C@H]1C(=O)OCCCc1cccnc1 [GPI 1046, reference compound]","protection from oxidative damage elicited by 3-NP, in words (FIG. 4A)",[2]; [8],significantly protected
same,"protection from HIV-1 Tat toxicity, in words (FIG. 4B)",[3],protected hippocampal neurons from Tat toxicity
CC(=O)O[C@@H]1CC2C(C)(C)C=CC(=O)[C@]2(C)C2CC[C@@]3(C)[C@H](c4ccoc4)OC(=O)C4OC43[C@@]21C (some centres unmarked) [ISOGEDUNIN],inhibition at 10 µM,[2]; [6],50%
CC(=O)OC1C[C@H](OC(C)=O)[C@@]2(C)C(C[C@@H](OC(C)=O)[C@]3(C)C2CC[C@@]2(C)[C@H](c4ccoc4)OC(=O)[C@H]4O[C@]423)C1(C)C (some centres unmarked) [KHIVORIN],"protection against 3-NP, in words (FIG. 5A)","[2]; 3 mM 3-NP, 10 μM of Khivorin",nearly complete protection
same,inhibition at 10 µM,[2]; [6],70%
COC(=O)C[C@H]1C(C)(C)C(=O)[C@@H]2CC3=C4CC(=O)O[C@@H](c5ccoc5)[C@]4(C)CC[C@@H]3[C@@]1(C)C2=O [MEXICANOLIDE],inhibition at 10 µM,[2]; [4],9%
C=C1[C@@H]([C@@]2(C)[C@@H](OC(C)=O)CC(=O)O[C@](C)(COC(C)=O)[C@@H]2C(=O)OC)[C@@H](OC=O)[C@H](OC(=O)[C@H](O)[C@H](C)CC)[C@@]2(C)[C@H](c3ccoc3)CC(=O)[C@]12O [PRIEURIANIN],inhibition at 10 µM,"[2]; 18 h, read-out: % Protection vs 3-NP",6%
COC1=C[C@@H](C)[C@@H]2C[C@H]3OC(=O)C[C@H]4C(C)=C(OC)C(=O)[C@H]([C@@]2(C)C1=O)[C@@]34C [QUASSIN],inhibition at 10 µM,[2]; [4],8%
"Oc1ccc(C=Cc2cc(O)cc(O)c2)cc1 [Resveratrol, reference compound]","protection from oxidative damage elicited by 3-NP, in words (FIG. 4A)",[2]; [8],significantly protected
same,"protection from HIV-1 Tat toxicity, in words (FIG. 4B)",[3],protected hippocampal neurons from Tat toxicity
CCC(C)C(=O)O[C@@H]1C[C@@]2(C)[C@H](c3ccoc3)OC(=O)CC23OC2(C)O[C@]14[C@]1(C)[C@@H](CC(=O)OC)C5(C)CC1(O)[C@](O)(C5OC(=O)C1(C)OC1C)[C@@H](OC(C)=O)[C@]34O2 (some centres unmarked) [UTILIN],inhibition at 10 µM,[2]; [4],16%
"C=C1C2CC[C@@]3(C)[C@H](c4ccoc4)OC(=O)C[C@]13OC1CC(=O)C(C)(C)C(CC(=O)OC)C12C (some centres unmarked) [[…], METHYL ESTER]",protection against 3-NP (FIG. 5),[2]; 3 mM 3-NP,about 50%
same,inhibition at 10 µM,[2]; [6],33%
same,inhibition at 10 µM,[2]; [4],33%
C[C@@H]([C@H]1OC(C)(C)[C@@H](O)[C@H]1O)[C@@H]1CC[C@]2(C)C3=CC[C@H]4C(C)(C)C(=O)CC[C@]4(C)[C@H]3CC[C@@]12C [odoratone],protection against 3-NP (FIG. 5),[2]; 3 mM 3-NP,60-70%
KHAYANTHONE,% Protection vs 3-NP,[2]; [7],36%
KHAYASIN C,% Protection vs 3-NP,[2]; [7],13%

# From US9289412B2, “Role of limonoid compounds as neuroprotective agents” (The Johns Hopkins University, priority 2006, dated 2016)
